The values below are quoted from earlier work in patent US8962267B1, “Method for predicting the response of non-small cell lung cancer patients to targeted pharmacotherapy” (Pamgene B.V., priority 2009, dated 2015).

Each structure is given as a SMILES string.

This data set deals with NSCLC. The conditions noted are these: second-line treatment of NSCLC patients, clinical trials, versus control.

Take `CC(=O)O[C@@]12CO[C@@H]1C[C@H](O)[C@@]1(C)C(=O)[C@H](O)C3=C(C)[C@@H](OC(=O)[C@H](O)[C@@H](NC(=O)OC(C)(C)C)c4ccccc4)C[C@@](O)([C@@H](OC(=O)c4ccccc4)[C@H]21)C3(C)C` [docetaxal, docetaxel]: the overall survival is 7.5 months. With `C#Cc1cccc(Nc2ncnc3cc(OCCOC)c(OCCOC)cc23)c1` [erlotinib], the overall survival is 6.7 months. As for `Nc1nc2[nH]cc(CCc3ccc(C(=O)N[C@@H](CCC(=O)O)C(=O)O)cc3)c2c(=O)[nH]1` [pemetrexed], the overall survival is recorded as 8.3 months.
